# Experiments:
# [1] = tested on: hamster flank organ hair growth (hair mass); assay: Golden Syrian hamster assay (hair mass assay); type: in vivo; details: for % Inhibition of hamster hair mass / Treated (mg) hair mass: three weeks
# Excerpt: Golden Syrian Hamster Assay
# Male intact Golden Syrian hamsters are considered acceptable models for human beard hair growth in that they display oval shaped flank organs, one on each side, each about 8 mm. in major diameter. These organs produce fine light colored hair typical of the animal pelage found on the body. In response to androgens the flank organs produce dark coarse hair similar to male human beard hair. To evaluate the effectiveness of a composition in reducing hair growth, the flank organs of each of a group of hamsters are depilated by applying a thioglycolate based chemical depilatory (Surgex) and/or shaved. To one organ of each animal 10 μl. of vehicle alone once a day is applied, while to the other organ of each animal an equal amount of vehicle containing the compound under evaluation is applied. After three weeks of topical applications (one application per day for five days a week), the flank organs are shaved and the amount of recovered hair (hair mass) from each is weighed. Percent-reduction of hair growth is calculated by subtracting the hair mass (mg) value of the test compound treated side from the hair mass value of the vehicle treated side; the delta value obtained is then divided by the hair mass value of the vehicle treated side, and the resultant number is multiplied by 100.
# The above-described assay will be referred to herein as the “Golden Syrian hamster” assay or “hair mass” assay. Preferred compositions provide a reduction in hair growth of at least about 15% and more preferably at least about 35%, when tested in the Golden Syrian hamster assay.
# [2] = tested on: Carnitine palmitoyltransferase I (CPT I); assay: Assay of carnitine palmitoyl transferase-I (CPT-I), Method-I; type: biochemical; details: inhibitor 5 mM, hamster flank organ hair follicle fraction
# Procedure: Assay of Carnitine Palmitoyl Transferase-I (CPT-I)
# Two different enzyme assays were used to quantify the activity of CPT-I in hair follicles:
# Hair follicle rich fraction from hamster flank organs are homogenized in Buffer A (200 mM mannitol, 10 mM sucrose, 5 mM MOPS pH 7.4). The homogenate is centrifuged at 2000 rpm for 10 minutes. The supernatant is removed and centrifuged at 7000 rpm for 30 minutes. The pellet is resuspended in Buffer B (20 mM Tris-HCl, pH 7.4), 400 mM sucrose, 80 mM KCl, 2 mM EDTA, 2.6 mg/ml fatty acid free BSA). 30 μl of the resuspended pellet is added to 35 μl of DMSO or one of the inhibitors diluted in DMSO so that the final concentration is 5 mM. After a 15 min preincubation, the following are added; 35 μl of 1.7 mM palmitoyl Co-A (34% water and 66% Buffer B), 10 μl of 5 mM L-carnitine (in buffer B with 0.5 μCi ^3H-carnitine). The reaction is then placed in a 37° C. water bath for 30 minutes. At the end of 30 minutes the reaction is stopped by the addition of 150 μl cold 1N HCl. This is followed by the addition of 250μl water to each sample. Butanol (500 μl) is then added to each sample and the samples are centrifuged for 2 minutes at 10,000×g. 300 μl of the butanol layer is transferred to a new centrifuge tube and 250 μl of water is added. 200 μl of the organic phase is added to a scintillation vial containing 12 ml of scintillation cocktail. The radioactivity is determined using a scintillation counter.
# 3-ketoacyl-CoA thiolase = assay: Assay of 3-ketoacyl-CoA thiolase; type: biochemical, hamster; details: inhibitor 0.5 mM, mitochondria preincubated 5 min
# Procedure: Assay of 3-Ketoacyl-CoA Thiolase:
# Aliquots of the mitochondrial suspension (50 μl) were rapidly frozen in dry ice and stored at −80° C. until enzyme activities were assayed as described below. To insure the complete disruption of mitochondria, Triton X-100 (0.06%) was added to all assay mixtures. The activity of thiolase was determined by spectrophotometrically following the disappearance of the Mg^2+-enolate complex at 303 nm. The enzyme assay was performed at 25° C. The reaction mixture contained 0.1 M Tris-HCl (pH 8.2), 25 mM MgCl2, 30 mM KCl, 0.06% Triton X-100, bovine serum albumin (0.13 mg/ml), 70 μM CoA and 33 μM acetoacetyl-CoA. Molar extinction coefficient of […] was used to calculate the rates determined with acetoacetyl-CoA.
# human hair follicles = assay: Human hair follicle growth assay; type: cell-based
# Excerpt: Human Hair Follicle Growth Assay
# Tissue source—Human skin was obtained from a plastic surgeon as a by-product of face-lift procedures. Immediately after removal, the skin was placed in Williams E medium containing antibiotics and refrigerated. The Williams E medium is a commercially obtained medium which has been formulated with essential nutrients for maintaining viability of tissues or cells such as of hair follicle in an in-vitro environment.
# Hair Follicle Isolation and Culture—Human hair follicles in growth phase (anagen) were isolated from face-lift tissue under a dissecting scope using a scalpel and watchmakers forceps. The skin was sliced into thin strips exposing 2-3 rows of follicles that could readily be dissected. Follicles were placed into 0.5 ml Williams E medium supplemented with 2 mM L-glutamine, 10 μg/ml insulin, 100 ng/ml hydrocortisone, 100 units penicillin, 0.1 mg/ml streptomycin and 0.25 μg/ml amphotericin B. The follicles were incubated in 24 well plates (1 follicle/well) at 37° C. in an atmosphere of 5% CO2 and 95% air. Hair follicles were video recorded in the 24-well plates under the dissecting scope under a power of 10×. Typically, hair follicle lengths were measured on day 0 (day follicles were placed in culture) and again on day 7. When testing compounds, the compound was included in the culture medium from time 0 and remained in the medium throughout the course of the experiment. The length of hair follicles was assessed using an image analysis software system (Jasc Image Robot).
# [3] = tested on: Carnitine palmitoyltransferase I (CPT I); assay: Assay of carnitine palmitoyl transferase-I (CPT-I), Method II (isolated mitochondrial fraction); type: biochemical, hamster; details: inhibitor 1 mM
# Procedure: The enzyme activity of carnitine palmitoyl transferase-I (CPT-I) was also determined in the isolated mitochondrial fraction. Isolation of mitochondria from the hair follicle rich fraction of flank organs was accomplished by conventional differential centriftigation in 0.25 M sucrose, 10 mM Tris-HCl, pH 7.4 and 1 mM EDTA after tissues were homogenized by polytron homogenizer and Dounce tissue grinder. The pellet obtained at 7000 g was washed two times and finally suspended at 40-80 mg/ml. Carnitine palmitoyltransferase was measured as the rate of conversion of palmitoyl-CoA and [^3H]CH3-L-carnitine into palmitoyl-[^3H]CH3-1-carnitine. The incubation mixture initially contained 12.5 μmol of Tris-HCl (pH 7.2), 15 μmol of KCl, 3.1 μmol of KCN, 6.2 μmol of glutathione, 15 nmol of CoA, […], 2 μmol of ATP (pH 6.8) in volume of 0.425 ml. To this mixture 50 μl of mitochondria were added, followed by preincubation at 37° C. for 10 minutes in the presence or absence of the enzyme inhibitor methyl palmoxirate (dissolved in DMSO). After preincubation, the enzyme reaction was initiated by the addition of 25 μl of 2 mM palmitoyl-CoA and 25 μl of 4 mM [^3H]CH3-L-carnitine. The reaction was stopped after 30 minutes with 1 ml 1N HCl and palmitoyl-[^3H]CH3-L-carnitine was extracted into n-butanol. The radioactivity was determined using scintillation spectrometry.
# [4] = 1 mM in culture medium, day 0 to day 7
structure (smiles),measurement,setting,value
CCCCCCCCCC(=O)OC(CC(=O)O)C[N+](C)(C)C.[Cl-] (racemic) [DL-decanoylcarnitine chloride],% Inhibition of hamster hair mass,"[1]; topical dose 10.0%, vehicle B",58 ± 5%
same,Treated (mg) hair mass,"[1]; topical dose 10.0%, vehicle B",0.94 ± 0.12 mg
CCCCCCCCCCCCCCC(Br)C(=O)O (centres unmarked) [2-bromopalmitic acid],% inhibition of CPT I,[2],91%
same,pmol product /mg protein (CPT I activity),[2],0.07 pmol product /mg protein
CCCC(CCC)C(=O)O [2-propylpentanoic acid],% Inhibition of hamster hair mass,"[1]; topical dose 20.0%, vehicle A",67 ± 3%
same,Treated (mg) hair mass,"[1]; topical dose 20.0%, vehicle A",2.68 ± 0.20 mg
O=C(O)/C=C/CBr [4-bromocrotonic acid],% inhibition of 3-ketoacyl-CoA thiolase,3-ketoacyl-CoA thiolase,85.2%
same,nmol product/mg protein (3-ketoacyl-CoA thiolase activity),3-ketoacyl-CoA thiolase,0.128 nmol product/mg protein
same,Hair follicle length increase (mm),"human hair follicles; 0.03 mM in culture medium, day 0 to day 7",0.06 ± 0.06 mm
same,inhibition at 30 µM,"human hair follicles; Homo sapiens, 0.03 mM in culture medium, day 0 to day 7",95 ± 5%
same,% Inhibition of hamster hair mass,"[1]; topical dose 3.0%, vehicle B",37 ± 14%
same,Treated (mg) hair mass,"[1]; topical dose 3.0%, vehicle B",1.25 ± 0.37 mg
C=CCCC(=O)O [4-pentenoic acid],% Inhibition of hamster hair mass,"[1]; topical dose 10.0%, vehicle A",46 ± 8%
same,Treated (mg) hair mass,"[1]; topical dose 10.0%, vehicle A",1.10 ± 0.12 mg
CC(C)(C)c1ccc(C(=O)O)cc1 [4-tert-butylbenzoic acid],% Inhibition of hamster hair mass,"[1]; topical dose 10.0%, vehicle C",46 ± 8%
same,Treated (mg) hair mass,"[1]; topical dose 10.0%, vehicle C",1.10 ± 0.12 mg
CCCCc1oc2ccccc2c1C(=O)c1cc(I)c(OCCN(CC)CC)c(I)c1 [amiodarone],% Inhibition of hamster hair mass,"[1]; topical dose 7.5%, vehicle A",44 ± 28%
same,Treated (mg) hair mass,"[1]; topical dose 7.5%, vehicle A",1.62 ± 0.9 mg
C/C=C/C/C=C/CCC(=O)[C@H]1O[C@H]1C(N)=O [cerulenin],Hair follicle length increase (mm),"human hair follicles; 10 μM in culture medium, day 0 to day 7",0.06 ± 0.05 mm
same,inhibition at 10 µM,"human hair follicles; Homo sapiens, 10 μM in culture medium, day 0 to day 7",93.7 ± 5.6%
same,inhibition of human hair follicle growth in vitro (in words),human hair follicles; text summary of Table VII,can inhibit human hair follicle growth in vitro with marked efficacy
COc1ccc(Cl)cc1C(=O)NCCc1ccc(S(=O)(=O)NC(=O)NC2CCCCC2)cc1 [glynbenclamide],% Inhibition of hamster hair mass,"[1]; topical dose 10.0%, vehicle D",32 ± 8%
same,Treated (mg) hair mass,"[1]; topical dose 10.0%, vehicle D",1.40 ± 0.32 mg
same,% inhibition of CPT I,[2],100%
same,pmol product /mg protein (CPT I activity),[2],0.00 pmol product /mg protein
CC(C)(COP(=O)(O)OP(=O)(O)OC[C@H]1O[C@@H](n2cnc3c(N)ncnc32)[C@H](O)[C@@H]1OP(=O)(O)O)[C@@H](O)C(=O)NCCC(=O)NCCSC(=O)CC(=O)O [malonyl CoA],% inhibition of CPT I,[2],22%
same,pmol product /mg protein (CPT I activity),[2],0.59 pmol product /mg protein
"CCCCCCCCCCCCCCC1(C(=O)OC)CO1 (centres unmarked) [methyl palmoxirate, methyl-2-tetradecylglycidate]",Hair follicle length increase (mm),"human hair follicles; 0.1 mM in culture medium, day 0 to day 7",0.54 ± 0.3 mm
same,inhibition at 100 µM,"human hair follicles; Homo sapiens, 0.1 mM in culture medium, day 0 to day 7",57 ± 24%
same,% Inhibition of hamster hair mass,"[1]; topical dose 2.0%, vehicle B",66 ± 4%
same,Treated (mg) hair mass,"[1]; topical dose 2.0%, vehicle B",0.56 ± 0.12 mg
CCCCCCCCC1=C(CCCCCCCC(=O)OC)C1 [methyl sterculate],% Inhibition of human hair follicle growth,human hair follicles; [4],59.3 ± 0.2%
same,Hair follicle length increase (mm),human hair follicles; [4],0.59 ± 0.29 mm
same,reduction of hair growth in vitro (in words),human hair follicles; text summary of Table IX,can reduce hair growth both in vivo and in vitro
same,reduction of hair growth in vivo (in words),[1]; text summary of Table VIII,can reduce hair growth both in vivo and in vitro
same,% Inhibition of hamster hair mass,"[1]; topical dose 2.5%, vehicle E",45.1 ± 6.8%
same,Treated (mg) hair mass,"[1]; topical dose 2.5%, vehicle E",1.4 ± 0.2 mg
N[C@H](C(=O)O)c1ccc(O)cc1 [oxfenicine],% inhibition of CPT I,[3],44%
same,pmol product /mg protein (CPT I activity),[3],0.64 pmol product/mg protein
CCCCCCCCCCCCCCCC(=O)OC(CC(=O)[O-])C[N+](C)(C)C (stereo not drawn) [palmitoyl DL carnitine],% Inhibition of hamster hair mass,"[1]; topical dose 10.0%, vehicle A",73 ± 15%
same,Treated (mg) hair mass,"[1]; topical dose 10.0%, vehicle A",0.29 ± 0.1 mg
C1CCC(C(CC2CCCCN2)C2CCCCC2)CC1 (centres unmarked) [perhexiline],% Inhibition of hamster hair mass,"[1]; topical dose 2.5%, vehicle B",23 ± 25%
same,Treated (mg) hair mass,"[1]; topical dose 2.5%, vehicle B",2.28 ± 0.77 mg
same,% inhibition of CPT I,[2],86%
same,pmol product /mg protein (CPT I activity),[2],0.10 pmol product /mg protein
CCCCNC(=O)NS(=O)(=O)c1ccc(C)cc1 [tolbutamide],% inhibition of CPT I,[2],90%
same,pmol product /mg protein (CPT I activity),[2],0.07 pmol product /mg protein

# Source: patent US20040198821A1, “Reduction of hair growth” (priority 2002, published 2004)
